Data as given in patent US7465806B2, “Pyrrole-derivatives as factor Xa inhibitors” (SANOFI-AVENTIS Deutschland GmbH, priority 2004, dated 2008).

Each compound was assayed against T1, human factor Xa (Homo sapiens, UniProt P00742) (assay: Factor Xa chromogenic assay (inhibition of factor Xa activity)). Settings: inhibition constant for factor Xa; chromogenic substrate S-2765 140 μM, enzyme 0.5 nM, 25° C.; Ki calculated from IC50; read-out: Ki(FXa).
T1 construct: human factor Xa (Enzyme Research Laboratories, Inc; South Bend, Indiana); purchased Enzyme Research Laboratories, Inc; South Bend, Indiana
Type: biochemical
Method: The ability of the compounds of the formulae I and Ia to inhibit factor Xa or factor VIIa or other enzymes like thrombin, plasmin, or trypsin can be assessed by determining the concentration of the compound of the formulae I and Ia that inhibits enzyme activity by 50%, i.e. the IC50 value, which was related to the inhibition constant Ki. Purified enzymes were used in chromogenic assays. The concentration of inhibitor that causes a 50% decrease in the rate of substrate hydrolysis was determined by linear regression after plotting the relative rates of hydrolysis (compared to the uninhibited control) versus the log of the concentration of the compound of formulae I and Ia. For calculating the inhibition constant Ki, the IC50 value was corrected for competition with substrate using the formula Ki=IC50/{1+(substrate concentration/Km)} wherein Km is the Michaelis-Menten constant (Chen and Prusoff, Biochem. Pharmacol. 22 (1973), 3099-3108; I. H. Segal, Enzyme Kinetics, 1975, John Wiley & Sons, New York, 100-125; which were incorporated herein by reference). a) Factor Xa Assay
In the assay for determining the inhibition of factor Xa activity TBS-PEG buffer (50 mM Tris-HCl, pH 7.8,200 mM NaCl, 0.05% (w/v) PEG-8000, 0.02% (w/v) NaN3) was used. The IC50 was determined by combining in appropriate wells of a Costar half-area microtiter plate 25 μl human factor Xa (Enzyme Research Laboratories, Inc.; South Bend, Indiana) in TBS-PEG; 40 μl 10% (v/v) DMSO in TBS-PEG (uninhibited control) or various concentrations of the compound to be tested diluted in 10% (v/v) DMSO in TBS-PEG; and substrate S-2765 (N(α)-benzyloxycarbonyl-D-Arg-Gly-L-Arg-p-nitroanilide; Kabi Pharmacia, Inc.; Franklin, Ohio) in TBS-PEG.
The assay was performed by pre-incubating the compound of formulae I and Ia plus enzyme for 10 min. Then the assay was initiated by adding substrate to obtain a final volume of 100 μl. The initial velocity of chromogenic substrate hydrolysis was measured by the change in absorbance at 405 nm using a Bio-tek Instruments kinetic plate reader (Ceres UV900HDi) at 25° C. during the linear portion of the time course (usually 1.5 min after addition of substrate). The enzyme concentration was 0.5 nM and substrate concentration was 140 μM.

T1 sequence (P00742 235-488 limits assumed): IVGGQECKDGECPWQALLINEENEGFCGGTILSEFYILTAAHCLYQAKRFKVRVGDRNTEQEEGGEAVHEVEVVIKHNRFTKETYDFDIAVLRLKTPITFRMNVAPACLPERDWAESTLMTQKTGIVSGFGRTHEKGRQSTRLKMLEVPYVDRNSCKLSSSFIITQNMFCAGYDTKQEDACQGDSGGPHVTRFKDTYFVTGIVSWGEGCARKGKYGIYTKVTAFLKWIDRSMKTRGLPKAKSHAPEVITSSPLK
T1 sequence (P00742 41-179 partner limits assumed): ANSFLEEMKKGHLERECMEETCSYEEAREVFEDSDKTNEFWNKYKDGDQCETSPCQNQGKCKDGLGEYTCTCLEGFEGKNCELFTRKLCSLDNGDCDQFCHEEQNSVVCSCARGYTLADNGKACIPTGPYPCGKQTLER

SMILES | Ki [nM]
Cc1c(CCC(=O)O)c(C)n(Cc2cc(-c3ccc(Cl)s3)on2)c1C(=O)NC1CCN(C(C)C)CC1 [Example 8, 3-[1-[5-(5-Chloro-thiophen-2-yl)-isoxazol-3-ylmethyl]-5-(1-isopropyl-piperidin-4-ylcarbamoyl)-2,4-dimethyl-1H-pyrrol-3-yl]-propionic acid] | 152
Cc1c(C=O)c(C)n(Cc2cc(-c3ccc(Cl)s3)on2)c1C(=O)NC1CCN(C(C)C)CC1 [Example 25, 1-[5-(5-Chloro-thiophen-2-yl)-isoxazol-3-ylmethyl]-4-formyl-3,5-dimethyl-1H-pyrrole-2-carboxylic acid (1-isopropyl-piperidin-4-yl)-amide] | 24
CC(C)N1CCC(NC(=O)c2cc([N+](=O)[O-])cn2Cc2cc(-c3ccc(Cl)s3)on2)CC1 [Example 3, 1-[5-(5-Chloro-thiophen-2-yl)-isoxazol-3-ylmethyl]-4-nitro-1H-pyrrole-2-carboxylic acid (1-isopropyl-piperidin-4-yl)-amide] | 43
CC(C)N1CCC(NC(=O)c2cc(C(=O)N3CCCOCC3)cn2CC(=O)Nc2ccc(Cl)cn2)CC1 [Example 5, 1-[(5-Chloro-pyridin-2-ylcarbamoyl)-methyl]-4-(perhydro-1,4-oxazepine-4-carbonyl)-1H-pyrrole-2-carboxylic acid (1-isopropyl-piperidin-4-yl)-amide] | 81
CC(C)N1CCC(NC(=O)c2cc(C(=O)OCc3ccccc3)n(CC(=O)Nc3ccc(Cl)cn3)c2)CC1 [Example 12, 1-[(5-Chloro-pyridin-2-ylcarbamoyl)-methyl]-4-(1-isopropyl-piperidin-4-ylcarbamoyl)-1H-pyrrole-2-carboxylic acid benzyl ester] | 34900
CC(C)N1CCC(NC(=O)c2ccc(-c3ccccc3)n2Cc2cc(-c3ccc(Cl)s3)on2)CC1 [Example 21, 1-[5-(5-Chloro-thiophen-2-yl)-isoxazol-3-ylmethyl]-5-phenyl-1H-pyrrole-2-carboxylic acid (1-isopropyl-piperidin-4-yl)-amide] | 5
CC(C)N1CCC(NC(=O)c2ccc(C(=O)OCc3ccccc3)n2Cc2cc(-c3ccc(Cl)s3)on2)CC1 [Example 9, 1-[5-(5-Chloro-thiophen-2-yl)-isoxazol-3-ylmethyl]-5-(1-isopropyl-piperidin-4-ylcarbamoyl)-1H-pyrrole-2-carboxylic acid benzyl ester] | 997
CC(C)N1CCC(NC(=O)c2ccc(C(=O)N3CCCOCC3)n2CC(=O)Nc2ccc(Cl)cn2)CC1 [Example 6, 1-[(5-Chloro-pyridin-2-ylcarbamoyl)-methyl]-5-(perhydro-1,4-oxazepine-4-carbonyl)-1H-pyrrole-2-carboxylic acid (1-isopropyl-piperidin-4-yl)-amide] | 902
Cc1cc(C)n(Cc2cc(-c3ccc(Cl)s3)on2)c1C(=O)NC1CCN(C(C)C)CC1 [Example 4, 1-[5-(5-Chloro-thiophen-2-yl)-isoxazol-3-ylmethyl]-3,5-dimethyl-1H-pyrrole-2-carboxylic acid (1-isopropyl-piperidin-4-yl)-amide] | 11
Cc1c(Br)c(C)n(CC(=O)Nc2ccc(Cl)cn2)c1C(=O)NC1CCN(C(C)C)CC1 [Example 24, 4-Bromo-1-[(5-chloro-pyridin-2-ylcarbamoyl)-methyl]-3,5-dimethyl-1H-pyrrole-2-carboxylic acid (1-isopropyl-piperidin-4-yl)-amide] | 11
COC(=O)c1cc(C(=O)NC2CCN(C(C)C)CC2)cn1Cc1cc(-c2ccc(Cl)s2)on1 [Example 16, 1-[5-(5-Chloro-thiophen-2-yl)-isoxazol-3-ylmethyl]-4-(1-isopropyl-piperidin-4-ylcarbamoyl)-1H-pyrrole-2-carboxylic acid methyl ester] | 1440
CC(C)N1CCC(NC(=O)c2ccc(C(=O)O)n2Cc2cc(-c3ccc(Cl)s3)on2)CC1 [Example 11, 1-[5-(5-Chloro-thiophen-2-yl)-isoxazol-3-ylmethyl]-5-(1-isopropyl-piperidin-4-ylcarbamoyl)-1H-pyrrole-2-carboxylic acid] | 294

Results, then the compound that gave them:

Ki [nM] | SMILES
77 | CC(C)N1CCC(NC(=O)c2cccn2Cc2cc(-c3ccc(Cl)s3)on2)CC1 [Example 1, 1-[5-(5-Chloro-thiophen-2-yl)-isoxazol-3-ylmethyl]-1H-pyrrole-2-carboxylic acid (1-isopropyl-piperidin-4-yl)-amide]
5 | Cc1c(Br)c(C)n(Cc2cc(-c3ccc(Cl)s3)on2)c1C(=O)NC1CCN(C(C)C)CC1 [Example 23, 4-Bromo-1-[5-(5-chloro-thiophen-2-yl)-isoxazol-3-ylmethyl]-3,5-dimethyl-1H-pyrrole-2-carboxylic acid (1-isopropyl-piperidin-4-yl)-amide]
112 | Cc1c(S(=O)(=O)N2CCCOCC2)c(C)n(Cc2cc(-c3ccc(Cl)s3)on2)c1C(=O)NC1CCN(C(C)C)CC1 [Example 22, 1-[5-(5-Chloro-thiophen-2-yl)-isoxazol-3-ylmethyl]-3,5-dimethyl-4-(perhydro-1,4-oxazepine-4-sulfonyl)-1H-pyrrole-2-carboxylic acid (1-isopropyl-piperidin-4-yl)-amide]
8060 | COc1cccc(Cn2cccc2C(=O)NC2CCN(C(C)C)CC2)c1 [Example 2, 1-(3-Methoxy-benzyl)-1H-pyrrole-2-carboxylic acid (1-isopropyl-piperidin-4-yl)-amide]
8990 | CC(C)N1CCC(NC(=O)c2cc(C(=O)O)n(Cc3cc(-c4ccc(Cl)s4)on3)c2)CC1 [Example 17, 1-[5-(5-Chloro-thiophen-2-yl)-isoxazol-3-ylmethyl]-4-(1-isopropyl-piperidin-4-ylcarbamoyl)-1H-pyrrole-2-carboxylic acid]
7 | COC(=O)c1ccc(C(=O)NC2CCN(C(C)C)CC2)n1Cc1cc(-c2ccc(Cl)s2)on1 [Example 10, 1-[5-(5-Chloro-thiophen-2-yl)-isoxazol-3-ylmethyl]-5-(1-isopropyl-piperidin-4-ylcarbamoyl)-1H-pyrrole-2-carboxylic acid methyl ester]
249 | CC(C)N1CCC(NC(=O)c2ccc(C(=O)N3CCCOCC3)n2Cc2cc(-c3ccc(Cl)s3)on2)CC1 [Example 7, 1-[5-(5-Chloro-thiophen-2-yl)-isoxazol-3-ylmethyl]-5-(perhydro-1,4-oxazepine-4-carbonyl)-1H-pyrrole-2-carboxylic acid (1-isopropyl-piperidin-4-yl)-amide]
9580 | CC(C)N1CCC(NC(=O)c2cc(C(=O)OCc3ccccc3)n(Cc3cc(-c4ccc(Cl)s4)on3)c2)CC1 [Example 13, 1-[5-(5-Chloro-thiophen-2-yl)-isoxazol-3-ylmethyl]-4-(1-isopropyl-piperidin-4-ylcarbamoyl)-1H-pyrrole-2-carboxylic acid benzyl ester]
59 | CC(C)N1CCC(NC(=O)c2cc([N+](=O)[O-])cn2CC(=O)Nc2ccc(Cl)cn2)CC1 [Example 14, 1-[(5-Chloro-pyridin-2-ylcarbamoyl)-methyl]-4-nitro-1H-pyrrole-2-carboxylic acid (1-isopropyl-piperidin-4-yl)-amide]
57 | COCCN(C)C(=O)c1ccc(C(=O)NC2CCN(C(C)C)CC2)n1Cc1cc(-c2ccc(Cl)s2)on1 [Example 20, 1-[5-(5-Chloro-thiophen-2-yl)-isoxazol-3-ylmethyl]-1H-pyrrole-2,5-dicarboxylic acid 2-[(1-isopropyl-piperidin-4-yl)-amide] 5-[(2-methoxy-ethyl)-methyl-amide]]
41300 | COC(=O)c1cc(C(=O)NC2CCN(C(C)C)CC2)cn1CC(=O)Nc1ccc(Cl)cn1 [Example 15, 1-[(5-Chloro-pyridin-2-ylcarbamoyl)-methyl]-4-(1-isopropyl-piperidin-4-ylcarbamoyl)-1H-pyrrole-2-carboxylic acid methyl ester]
88 | COCCNC(=O)c1ccc(C(=O)NC2CCN(C(C)C)CC2)n1Cc1cc(-c2ccc(Cl)s2)on1 [Example 19, 1-[5-(5-Chloro-thiophen-2-yl)-isoxazol-3-ylmethyl]-1H-pyrrole-2,5-di carboxylic acid 2-[(1-isopropyl-piperidin-4-yl)-amide] 5-[(2-methoxy-ethyl)-amide]]
